Laboratory results as given in patent publication US20120071475A1, “UREA DERIVATIVES HAVING PI3K-INHIBITING ACTIVITY” (SHIONOGI & CO., LTD., priority 2009, published 2012).
Each block holds one molecule with its values, some of them ahead of it.

What was measured:
CYP3A4 = molecular target: T1, CYP3A4 (Homo sapiens, UniProt P08684); assay: CYP3A4 fluorescence MBI test; assay type: in vitro ADME; conditions: difference in IC50 with 0 or 30 minutes pre-reaction; CYP3A4 expressed in E. coli, substrate 7-BFC
T1 construct: host or cells: E. coli
T1 sequence (P08684 whole entry): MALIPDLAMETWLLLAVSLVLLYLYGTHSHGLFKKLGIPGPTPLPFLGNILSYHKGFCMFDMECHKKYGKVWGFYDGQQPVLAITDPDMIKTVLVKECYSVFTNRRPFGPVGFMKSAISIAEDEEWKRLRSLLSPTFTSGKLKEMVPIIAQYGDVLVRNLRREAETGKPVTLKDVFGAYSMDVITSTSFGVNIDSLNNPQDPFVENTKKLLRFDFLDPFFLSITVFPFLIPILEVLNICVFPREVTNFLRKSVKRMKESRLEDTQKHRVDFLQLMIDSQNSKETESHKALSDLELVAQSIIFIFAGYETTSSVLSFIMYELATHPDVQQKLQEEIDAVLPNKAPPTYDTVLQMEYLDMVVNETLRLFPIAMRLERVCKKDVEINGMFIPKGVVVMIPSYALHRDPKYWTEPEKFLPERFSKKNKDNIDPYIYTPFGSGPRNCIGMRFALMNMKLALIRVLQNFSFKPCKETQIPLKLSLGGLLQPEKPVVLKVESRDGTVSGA
Method: The CYP3A4 fluorescence MBI test is a test to examine the enhancement of CYP3A4 inhibition of a compound by a metabolic reaction. The test was performed using as an index, a reaction to produce a metabolite 7-hydroxytrifluoromethylcoumarin (HFC) which emits fluorescence, in which CYP3A4 expressed in E. coli was used as an enzyme and 7-benzyloxytrifluoromethylcoumarin (7-BFC) is debenzylated by CYP3A4 enzyme.
The reaction conditions are as follows: substrate: 5.6 μmol/L 7-BFC; pre-reaction time; 0 or 30 minutes; reaction time: 15 minutes; reaction temperature: 25° C. (room temperature); content of CYP3A4 (an enzyme expressed in E. coli): […] at the time of a pre-reaction and […] (when diluted 10 times) at the time of a reaction; the concentrations of a test drug: 0.625, 1.25, 2.5, 5, 10, and 20 μmol/L (6 points).
In a 96-well plate, an enzyme solution and a test drug solution were added as a pre-reaction solution into K-Pi buffer solution (pH 7.4) in the aforementioned ratio. A portion thereof was transferred to another 96-well plate to be diluted ten times with a substrate and a K-Pi buffer solution. A coenzyme, NADPH, was then added to start a reaction, which is the index (this is without a pre-reaction). After reacting for a predetermined time, 4:1 of acetonitrile: 0.5 mol/L Tris (trishydroxyaminomethane) was added to quench the reaction. To the remaining pre-reaction solution, NADPH was added to start a pre-reaction (this is with a pre-reaction). After pre-reacting for a predetermined time, a portion thereof was transferred to another plate to be diluted ten times with a substrate and K-Pi buffer solution, and thereby the index reaction is started. After reacting for a predetermined time, 4:1 of acetonitrile:0.5 mol/L Tris (trishydroxyaminomethane) was added to quench the reaction. For each plate in which the index reaction was carried out, the fluorescence value of a metabolite 7-HFC was measured with a fluorescent plate reader (Ex=420 nm, Em=535 nm).
The case wherein only DMSO (a solvent which dissolved a drug) was added to a reaction system was defined as a control (100%). When a test drug solution was added, the remaining activity (%) at each concentration was calculated, and then IC50 was calculated with a concentration and an inhibition ratio by an inverse estimation using a logistic model. When the difference in IC50 value is 5 μmol/L or more, the compound is shown as (+). When 3 μmol/L or less, the compound is shown as (−).

PI3Kγ = PI3Kγ (Homo sapiens, UniProt P48736); assay: PI3Kγ inhibitory activity (PI3-kinase HTRF assay, inhibition ratio); assay type: biochemical; conditions: 0.5 h, compound at 10 μmol/L; read-out: PI3Kg Inhibition Ratio % (10 μM)
Sequence of PI3Kγ (P48736 whole entry, species assumed): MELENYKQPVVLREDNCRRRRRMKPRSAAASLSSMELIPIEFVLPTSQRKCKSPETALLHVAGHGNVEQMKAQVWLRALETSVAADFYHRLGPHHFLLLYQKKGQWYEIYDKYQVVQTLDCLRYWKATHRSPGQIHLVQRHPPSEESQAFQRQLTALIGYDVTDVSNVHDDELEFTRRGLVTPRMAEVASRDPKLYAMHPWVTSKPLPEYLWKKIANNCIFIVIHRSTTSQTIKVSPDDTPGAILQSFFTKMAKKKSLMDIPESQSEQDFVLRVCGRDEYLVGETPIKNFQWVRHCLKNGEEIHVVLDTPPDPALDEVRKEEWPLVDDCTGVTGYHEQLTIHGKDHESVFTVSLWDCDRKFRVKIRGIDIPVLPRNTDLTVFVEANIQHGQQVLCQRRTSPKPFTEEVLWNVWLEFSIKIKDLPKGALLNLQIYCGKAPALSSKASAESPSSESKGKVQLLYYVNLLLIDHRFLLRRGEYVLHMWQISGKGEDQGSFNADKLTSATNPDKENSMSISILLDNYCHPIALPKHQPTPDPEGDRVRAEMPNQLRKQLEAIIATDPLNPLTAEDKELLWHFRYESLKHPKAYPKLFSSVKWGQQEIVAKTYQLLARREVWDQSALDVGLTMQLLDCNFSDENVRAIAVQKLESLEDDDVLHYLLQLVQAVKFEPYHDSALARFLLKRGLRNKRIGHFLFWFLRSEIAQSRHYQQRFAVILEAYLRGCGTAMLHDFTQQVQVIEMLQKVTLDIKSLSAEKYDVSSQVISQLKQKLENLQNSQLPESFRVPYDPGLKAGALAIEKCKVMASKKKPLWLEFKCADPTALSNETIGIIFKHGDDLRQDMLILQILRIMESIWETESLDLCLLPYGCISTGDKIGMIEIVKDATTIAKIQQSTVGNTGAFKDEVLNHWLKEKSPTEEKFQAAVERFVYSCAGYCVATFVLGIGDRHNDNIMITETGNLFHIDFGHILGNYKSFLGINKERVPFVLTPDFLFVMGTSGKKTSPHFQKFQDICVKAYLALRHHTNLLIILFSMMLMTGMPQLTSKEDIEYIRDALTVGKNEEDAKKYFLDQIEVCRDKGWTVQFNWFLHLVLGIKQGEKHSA
Method: For each compound synthesized in the above Examples, PI3Kγ inhibitory activity was measured.
The PI3Kγ inhibitory activity of a compound was evaluated using PI3-kinase HTRF™ assay (Millipore) according to the following procedure:
To each well of a testing plate, 5 μL of a compound solution containing 10% DMSO (40 μmol/L as the concentration of the compound), 5 μL of a substrate solution (40 μmol/L phosphatidylinositol (4,5)-bisphosphate, 20 mmol/L MgCl2, 10 mmol/L DTT), and 5 μL of an enzyme solution (80 μg/mL PI-3 kinase y, 10 mmol/L MgCl2, 5 mmol/L DTT) were added, and then allowed to stand for 10 minutes.
Then, 5 μL of a reaction solution (40 μmol/L ATP, 10 mmol/L MgCl2, 5 mmol/L DTT) was added thereto. After reacting for 30 minutes at room temperature, 5 μL of a solution containing EDTA and biotinylated phosphatidylinositol (3,4,5)-triphosphate was added to quench the reaction.
5 μL of a detection reagent containing a europium-labeled anti-GST antibody, the GST-tagged PH domain, and allophycocyanin-labeled streptavidin was added thereto. After 18 hours, HTRF (excitation wavelength: 330 nm, measured wavelengths: 620 nm and 665 nm) was measured.
HTRF ratio was defined as the value obtained by dividing the amount of fluorescence obtained at the measured wavelength 665 nm by the amount of fluorescence obtained at 620 nm. The HTRF ratio in the absence of a compound was defined as 100% activity and the HTRF ratio in the absence of PI-3 kinase y was defined as 0% activity to calculate an inhibition ratio, which was defined as the PI3Kγ inhibitory activity of a compound at 10 μmol/L.

[1] = Metabolic stability test (pooled human liver microsome); assay type: in vitro ADME; conditions: percentage of test compound remained after 30 minutes, pooled human liver microsome 0.5 mg protein/mL, 1 mmol/L NADPH, 37° C., compound 0.5 μM
Method: After a subject compound was reacted for a certain time using a pooled human liver microsome commercially available, a reacted sample and an unreacted sample are compared to calculate a survival ratio, and then the degree of metabolism in the liver was evaluated.
0.2 mL of a buffer solution (50 mmol/L of Tris-HCl in pH 7.4, 150 mmol/L of potassium chloride, and 10 mmol/L of magnesium chloride) containing a human liver microsome of 0.5 mg protein/mL was reacted in the presence of 1 mmol/L NADPH at 37° C. for 0 or 30 minutes (oxidative reaction). After reacting, 50 μL of the reaction solution was added to 100 μL of a solution of methanol/acetonitrile (1/1 (v/v)), mixed, and then centrifuged at 3000 rpm for 15 minutes. The test compound in the supernatant was quantitated with LC/MS/MS. The amount of the compound at a reaction time of 0 minute was defined as 100% and, based on that, the percentage of the test compound remained after reacting for 30 minutes was calculated.

SMILES: COc1cc(N2CCc3nc(NC(=O)Nc4ccccc4OC(F)(F)F)sc3C2)nc(OC)n1 [Compound I-34]
MBI (CYP3A4): (−) (When 3 μmol/L or less, the compound is shown as (−))

SMILES: Cc1cc(N2CCc3nc(NC(=O)Nc4cn(C)nc4C(=O)NC(C)C)sc3C2)nc(C#N)n1 [Compound I-186]
inhibition at 10 µM (PI3Kγ): 91%
MBI (CYP3A4): (−) (When 3 μmol/L or less, the compound is shown as (−))

SMILES: COc1cc(N2CCc3nc(NC(=O)Nc4ccccc4C(=O)NCCC(C)C)sc3C2)nc(OC)n1 [Compound I-59]
MBI (CYP3A4): (−) (When 3 μmol/L or less, the compound is shown as (−))

SMILES: COc1cc(N2CCc3nc(NC(=O)Nc4cccc(F)c4C(=O)NC(C)C)sc3C2)nc(OC)n1 [Compound I-75]
MBI (CYP3A4): (−) (When 3 μmol/L or less, the compound is shown as (−))

SMILES: COc1cc(N2CCc3nc(NC(=O)Nc4ccccc4C(F)(F)F)sc3C2)nc(OC)n1 [Compound I-33]
MBI (CYP3A4): (−) (When 3 μmol/L or less, the compound is shown as (−))

SMILES: COc1cc(OC)nc(N2CCc3nc(NC(=O)Nc4ccccc4C(=O)NC(C)C)sc3C2)c1 [Compound I-62]
MBI (CYP3A4): (−) (When 3 μmol/L or less, the compound is shown as (−))

SMILES: COc1cc(N2CCc3nc(NC(=O)Nc4ccccc4C(C)(C)C)sc3C2)nc(OC)n1 [Compound I-40]
MBI (CYP3A4): (−) (When 3 μmol/L or less, the compound is shown as (−))

SMILES: CS(=O)(=O)c1cccc(N2CCc3nc(NC(=O)Nc4ccccc4C(=O)NCC#N)sc3C2)c1 [Compound I-200]
inhibition at 10 µM (PI3Kγ): ≥ 95%
MBI (CYP3A4): (−) (When 3 μmol/L or less, the compound is shown as (−))

SMILES: COc1cc(N2CCc3nc(NC(=O)Nc4ccccc4C(=O)NCC(C)C)sc3C2)nc(OC)n1 [Compound I-58]
MBI (CYP3A4): (−) (When 3 μmol/L or less, the compound is shown as (−))

SMILES: COc1cncc(C2(F)CCc3nc(NC(=O)Nc4ccccc4C(=O)NC(C)C)sc3C2)c1 (stereo not drawn) [Compound I-79]
MBI (CYP3A4): (−) (When 3 μmol/L or less, the compound is shown as (−))

SMILES: COc1cc(N2CCc3nc(NC(=O)Nc4ccccc4OCc4ccccc4)sc3C2)nc(OC)n1 [Compound I-39]
MBI (CYP3A4): (−) (When 3 μmol/L or less, the compound is shown as (−))

SMILES: COc1cncc(N2CCc3nc(NC(=O)Nc4ccccc4C(=O)NC(C)C)sc3C2)c1 [Compound I-49]
MBI (CYP3A4): (−) (When 3 μmol/L or less, the compound is shown as (−))

Second part, led by results:

inhibition at 10 µM (PI3Kγ): 89%
hLMS_ox(at 0.5 μM) % [1]: 92.6%
SMILES: Cc1cc(N2CCc3nc(NC(=O)Nc4ccccc4C(=O)N[C@@H](C)CO)sc3C2)nc(C#N)n1 [Compound I-180]
MBI (CYP3A4): (−) (When 3 μmol/L or less, the compound is shown as (−))

inhibition at 10 µM (PI3Kγ): 83%
hLMS_ox(at 0.5 μM) % [1]: 90.5%
SMILES: Cc1cc(N2CCc3nc(NC(=O)Nc4ccccc4C(=O)NC(C)C)sc3C2)nc(Cl)n1 [Compound I-163]
MBI (CYP3A4): (−) (When 3 μmol/L or less, the compound is shown as (−))

inhibition at 10 µM (PI3Kγ): ≥ 95%
SMILES: COc1cc(N2CCc3nc(NC(=O)Nc4cnccc4C(=O)NC(C)(C)C)sc3C2)nc(OC)n1 [Compound I-23]
MBI (CYP3A4): (−) (When 3 μmol/L or less, the compound is shown as (−))

inhibition at 10 µM (PI3Kγ): ≥ 95%
hLMS_ox(at 0.5 μM) % [1]: 87.6%
SMILES: Cc1cc(N2CCc3nc(NC(=O)Nc4ccccc4C(=O)N[C@H](C)CO)sc3C2)nc(C#N)n1 [Compound I-185]
MBI (CYP3A4): (−) (When 3 μmol/L or less, the compound is shown as (−))

hLMS_ox(at 0.5 μM) % [1]: 95.5%
SMILES: CNC(=O)c1ccccc1NC(=O)Nc1nc2c(s1)CN(c1cc(OC)nc(OC)n1)CC2 [Compound I-56]
MBI (CYP3A4): (−) (When 3 μmol/L or less, the compound is shown as (−))

inhibition at 10 µM (PI3Kγ): ≥ 95%
hLMS_ox(at 0.5 μM) % [1]: 101%
SMILES: COc1cc(N2CCc3nc(NC(=O)Nc4ccccc4C(N)=O)sc3C2)nc(OC)n1 [Compound I-35]
MBI (CYP3A4): (−) (When 3 μmol/L or less, the compound is shown as (−))

inhibition at 10 µM (PI3Kγ): 89%
hLMS_ox(at 0.5 μM) % [1]: 104%
SMILES: Cc1cc(N2CCc3nc(NC(=O)Nc4ccccc4C(=O)N[C@@H](C)CO)sc3C2)nc(Cl)n1 [Compound I-168]
MBI (CYP3A4): (−) (When 3 μmol/L or less, the compound is shown as (−))

inhibition at 10 µM (PI3Kγ): ≥ 95%
SMILES: CC(C)NC(=O)c1ccccc1NC(=O)Nc1nc2c(s1)CN(c1ccnc(Cl)n1)CC2 [Compound I-98]
MBI (CYP3A4): (−) (When 3 μmol/L or less, the compound is shown as (−))

inhibition at 10 µM (PI3Kγ): ≥ 95%
SMILES: COc1cc(N2CCc3nc(NC(=O)Nc4ccccc4C(=O)CC(C)C)sc3C2)nc(OC)n1 [Compound I-65]
MBI (CYP3A4): (−) (When 3 μmol/L or less, the compound is shown as (−))

inhibition at 10 µM (PI3Kγ): ≥ 95%
SMILES: COc1cc(N2CCc3nc(NC(=O)Nc4ccccc4C(=O)NC4(C#N)CC4)sc3C2)nc(OC)n1 [Compound I-20]
MBI (CYP3A4): (−) (When 3 μmol/L or less, the compound is shown as (−))

inhibition at 10 µM (PI3Kγ): ≥ 95%
SMILES: COc1cc(N2CCc3nc(NC(=O)Nc4cccnc4C(=O)N(C)C(C)C)sc3C2)nc(OC)n1 [Compound I-24]
MBI (CYP3A4): (−) (When 3 μmol/L or less, the compound is shown as (−))

inhibition at 10 µM (PI3Kγ): ≥ 95%
SMILES: COc1cc(N2CCc3nc(NC(=O)Nc4cccnc4C(=O)NC(C)(C)C)sc3C2)nc(OC)n1 [Compound I-22]
MBI (CYP3A4): (−) (When 3 μmol/L or less, the compound is shown as (−))

hLMS_ox(at 0.5 μM) % [1]: 83.3%
SMILES: COc1cc(N2CCc3nc(NC(=O)Nc4cc(F)ccc4C(=O)NC(C)C)sc3C2)nc(OC)n1 [Compound I-74]
MBI (CYP3A4): (−) (When 3 μmol/L or less, the compound is shown as (−))
